Read-outs that look alike come from different tables or passages of the source.
How the values were obtained:
Assay type in all cases: in vivo, human
[1] = Intra-pulmonary (ELF, AC/AM by BAL) and plasma PK after multiple iv doses in healthy adult subjects; conditions: for Kp at 0.5 h / Kp at 1 h / Kp at 2 h / Kp at 4 h / Kp at 8 h / Kp at 12 h / Kp at 24 h / AUC / Kp: intravenous, 100 mg; for concentration at 0.5 h: 0.5 h after fifth 100 mg iv dose; for concentration at 1 h: 1 h after fifth 100 mg iv dose; for concentration at 2 h: 2 h after fifth 100 mg iv dose; for concentration at 4 h: 4 h after fifth 100 mg iv dose; for concentration at 8 h: 8 h after fifth 100 mg iv dose; for concentration at 12 h: 12 h after fifth 100 mg iv dose; for concentration at 24 h: 24 h after fifth 100 mg iv dose
Experimental: Concomitant blood samples were taken to compare tissue with serum antibiotic concentrations. […]
One standard bronchoscopy was performed for each subject. […] A blood sample was taken at the time of bronschoscopy for plasma urea measurement.
During the bronchoscopy 4 aliquots of 50 mL each of sterile saline solution were instilled into the right lobe of the lungs, immediately aspirated, and placed on ice. The first bronchioalveolar lavage aliquot instilled (BALX) fraction was prepared and analyzed separately from subsequent instillations. The aspirate from the second through the fourth instillation, once pooled, represented the BAL fraction. An aliquot of BAL was removed and used to determine the cell count and differential cell composition including pulmonary macrophages. The remaining supernatant was centrifuged and the supernatant and cell pellet were immediately frozen pending analysis. An aliquot of the BAL supernatant was frozen separately for urea assay. The amount of test article detected in the cell pellet was normalized by the corresponding fraction of macrophages. Fraction BALX was analyzed in a similar manner, except the cell pellet was not assessed or assayed. A blood sample to determine urea concentration was obtained at the time of the second instillation (±3 minutes). The concentration of test article detected in the BALX and BAL fluid was normalized by the dilution factor with respect to urea levels detected in the BALX and BAL fractions respectively.
All completed subjects with evaluable plasma PK parameter data were included in the PK data analysis.
All the biofluid concentrations were expressed in ng/mL. All concentrations below the limit of quantification (BLQ) or missing data were labeled as such in the concentration data listings. Concentrations BLQ were treated as zero in summary statistics for concentration data only. They were not considered for calculation of PK Parameters (with the exception of the predose samples). PK parameters were determined using non-compartmental method(s) using WinNonlin Pro.
These were obtained from the above plasma PK parameter calculations (AUC0-24 and AUC0-12). The tigecycline concentration information was serve as an internal validation for assay sensitivity purposes.
The volume of the lung ELF within the BAL fluid was estimated by (ureaBAL/ureaplasma), where ureaBAL and ureaplasma represented the concentrations of urea in the BAL fluid and plasma, respectively.
AUCELF and AUCAC were determined from pooled pulmonary concentration data and were summarized by treatment group. […] For the tigecycline cohort there were 5 ELF and AC concentrations for each of the 4 timepoints over the 12 hour dosing interval.
For PK blood collection and processing, all blood samples were taken by either direct venipuncture or an indwelling cannula inserted in a forearm vein (on the arm contralateral to the infusion site) at the timepoints specified in the Study Flowchart. The PK blood sample collected at the bronchoscopy scheduled time was obtained at the time of the second BAL instillation (±3 minutes) from the arm contralateral to the infusion site.
Blood samples were collected into labeled 4 mL tubes containing sodium heparin. Immediately after the sample was collected, the tube was gently inverted 5 to 8 times to thoroughly mix the anticoagulant and then placed upright in a cryoblock or test tube rack surrounded by ice until centrifugation. Samples were centrifuged at 1500×g (gravity) for 10 minutes at approximately 4° C. within 30 minutes of collection. The resultant plasma was divided into 2 equal aliquots, placed in individual cryovials, and immediately frozen at −70° C. or colder within 1 hour of collection. The tubes were kept frozen at −70° C. or colder pending shipment to the bioanalytical laboratory.

Legionella pneumophila = conditions: PTE, microITT; baseline pathogen Legionella pneumophila (culture, serology and/or urinary antigen); N1 = 37 (Compound 1), 37 (Moxifloxacin)
[2] = test system: Haemophilus parainfluenzae; experiment: Clinical success at PTE by baseline pathogen, microITT; conditions: N1 = 18 (Compound 1), 17 (Moxifloxacin)
[3] = Safety assessments in the multiple iv dose BAL study, healthy adult subjects; conditions: 5 doses of 100 mg iv
Experimental: Safety assessments included physical examinations, electrocardiograms (ECG), vital signs, standard clinical laboratory evaluations (blood chemistry, hematology), pregnancy testing, and adverse event (AE) and serious adverse event (SAE) monitoring.
Any subject who received at least 1 dose of test article was included in the evaluation for safety. Safety was assessed by the following measures: Physical exams; AEs and SAEs; Vital signs; Laboratory assessments (Blood samples for hematology, chemistry, and coagulation (prothrombin time only)); ECG; and Pregnancy assessments.
Subjects were analyzed according to the treatment actually received.

[4] = Safety and tolerability in the food effect study
Experimental: Safety and tolerability was assessed by: Adverse events (AEs); vital sign measurements at multiple time-points within 24 hours post-dose in each treatment period; and clinical laboratory tests 24 hours post-dose in each treatment period.

[5] = human, ELF (epithelial lung fluid from BAL) relative to plasma, read-out: ELF to Plasma (Mean, SD)
[6] = human, alveolar macrophages (AM), read-out: AM concentration (mean ± SD)
[7] = human, epithelial lining fluid (ELF), read-out: ELF concentration (mean ± SD)
[8] = human, read-out: AM to Plasma (Mean, SD)
[9] = human, plasma, read-out: Plasma concentration at time of BAL (mean ± SD)

CN(C)c1cc(CNCC(C)(C)C)c(O)c2c1C[C@H]1C[C@H]3[C@H](N(C)C)C(O)=C(C(N)=O)C(=O)[C@@]3(O)C(O)=C1C2=O [Compound 1, 9-[(2,2-dimethyl-propylamino)-methyl]-minocycline]
mean concentration in ELF higher than that in plasma ([1]; FIG. 1, concentration vs. time profile): at least 40% | maximum concentration (plasma), mean ± SD ([1]; after the fifth 100 mg iv dose): 2.26 ± 0.76 µg/mL | Kp at 0.5 h [1, 5]: 0.95 ± 0.56 | Kp at 1 h [1, 5]: 2.72 ± 1.26 | Kp at 2 h [1, 5]: 1.5 ± 0.61 | Kp at 4 h [1, 5]: 1.79 ± 0.49 | Kp at 8 h [1, 5]: 1.07 ± 0.45 | Kp at 12 h [1, 5]: 1.44 ± 0.57 | Kp at 24 h [1, 5]: 1.65 ± 0.86 | AUC ([1]; human, ELF (epithelial lung fluid from BAL), AUC0-24 based on mean concentration at each BAL sampling time, read-out: ELF AUCmean): 17200 ng·h/mL | AUC ([1]; human, ELF (epithelial lung fluid from BAL), AUC0-24 based on median concentration at each BAL sampling time, read-out: ELF AUCmedian): 16700 ng·h/mL | Kp ([1]; human, alveolar cells (AC) / plasma, based on AUC0-24 of mean concentrations, read-out: Ratio AC:Plasma (AUCmean)): 25.8 | Kp ([1]; human, alveolar cells (AC) / plasma, based on AUC0-24 of median concentrations, read-out: Ratio AC:Plasma (AUCmedian)): 24.8 | AUC ([1]; human, alveolar cells (AC, BAL cell pellet), AUC0-24 based on mean concentration at each BAL sampling time, read-out: AC AUCmean): 302000 ng·h/mL | AUC ([1]; human, alveolar cells (AC, BAL cell pellet), AUC0-24 based on median concentration at each BAL sampling time, read-out: AC AUCmedian): 292000 ng·h/mL | Kp ([1]; human, alveolar cells (AC, mostly AM) / plasma, FIG. 1, concentration vs. time profile, read-out: mean concentration in AC (mostly AM) higher than that in plasma): ~25 | concentration at 0.5 h [1, 6]: 14300 ± 9300 ng/mL | concentration at 1 h [1, 6]: 12800 ± 8480 ng/mL | concentration at 2 h [1, 6]: 10800 ± 7590 ng/mL | concentration at 4 h [1, 6]: 18000 ± 7170 ng/mL | concentration at 8 h [1, 6]: 12300 ± 4700 ng/mL | concentration at 12 h [1, 6]: 12300 ± 4610 ng/mL | concentration at 24 h [1, 6]: 10400 ± 4040 ng/mL | Kp ([1]; human, epithelial lining fluid (ELF) / plasma, penetration ratio based on AUC0-24 of mean concentrations, read-out: Ratio ELF:Plasma (AUCmean)): 1.47 | Kp ([1]; human, epithelial lining fluid (ELF) / plasma, penetration ratio based on AUC0-24 of median concentrations, read-out: Ratio ELF:Plasma (AUCmedian)): 1.42 | concentration at 0.5 h [1, 7]: 1730 ± 1010 ng/mL | concentration at 1 h [1, 7]: 2250 ± 720 ng/mL | concentration at 2 h [1, 7]: 1510 ± 940 ng/mL | concentration at 4 h [1, 7]: 950 ± 330 ng/mL | concentration at 8 h [1, 7]: 580 ± 190 ng/mL | concentration at 12 h [1, 7]: 610 ± 290 ng/mL | concentration at 24 h [1, 7]: 410 ± 130 ng/mL | Kp at 0.5 h [1, 8]: 8.12 ± 5.95 | Kp at 1 h [1, 8]: 13.8 ± 7.38 | Kp at 2 h [1, 8]: 12.3 ± 6.57 | Kp at 4 h [1, 8]: 34.7 ± 15.1 | Kp at 8 h [1, 8]: 23.1 ± 11.2 | Kp at 12 h [1, 8]: 29 ± 8.78 | Kp at 24 h [1, 8]: 40.3 ± 10.3 | AUC ([1]; human, plasma, AUC0-24 based on mean concentration at each BAL sampling time, read-out: Plasma AUCmean): 11700 ng·h/mL | AUC ([1]; human, plasma, AUC0-24 based on median concentration at each BAL sampling time, read-out: Plasma AUCmedian): 11800 ng·h/mL | concentration at 0.5 h [1, 9]: 1800 ± 130 ng/mL | concentration at 1 h [1, 9]: 890 ± 190 ng/mL | concentration at 2 h [1, 9]: 930 ± 330 ng/mL | concentration at 4 h [1, 9]: 590 ± 150 ng/mL | concentration at 8 h [1, 9]: 560 ± 120 ng/mL | concentration at 12 h [1, 9]: 420 ± 70 ng/mL | concentration at 24 h [1, 9]: 270 ± 50 ng/mL | Vd ([1]; human, plasma, after the fifth 100 mg iv dose, read-out: volume of distribution, mean ± SD): 165 ± 58 L | Clinical Success n (%) (Legionella pneumophila): 35 (94.6) n (%) | Clinical Success n (%) [2]: 15 (83.3) n (%) | Treatment-emergent adverse events (TEAEs) reported [3]: 29% | changes in vital signs, laboratory or ECG parameters [3]: no clinically significant changes | discontinuations due to TEAEs [3]: no discontinuations due to TEAEs | most common TEAE: headache [3]: 12% | severe or serious TEAEs [3]: no severe or serious TEAEs | tolerability of a single oral dose ([4]; 300 mg oral): well tolerated | subjects with treatment emergent AEs ([4]; 32 subjects, nausea, somnolence, mild, unrelated to study drug): two | median change from baseline in heart rate ([4]; all other treatment groups, all measured time points): ≤ 3 bpm | serious AE (SAE) ([4]; single 300 mg oral dose): no subject experienced a serious AE | treatment-related adverse events or clinically relevant changes in laboratory values or vital signs ([4]; single 300 mg oral dose): No treatment-related adverse events
